Data taken from patent publication US20020091124A1, “2-acyl indole derivatives and their use as antitumor agents” (priority 2000, published 2002).
Like-named read-outs stand apart in the source and are kept apart here.

Experiments:
[1] = system: T1, bovine brain tubulin; experiment: Bovine tubulin polymerization assay; type: biochemical; details: inhibition of tubulin polymerization; read-out: Tubulin-hemmung/ IC50
T1 construct: The tubulin used in the assay was isolated from bovine brain using cycles of polymerization and depolymerization
Description: In an in vitro test, selected compounds were tested for inhibition of polymerization of bovine brain. In this test, tubulin purified by cycles of polymerization and depolymerization, polymerization being initiated by addition of GTP and heating, is used.
The tubulin used in the assay was isolated from bovine brain using cycles of polymerization and depolymerization. […] The appropriate amount of test substance, dissolved in 100% DMSO, is pipetted to this mixture. 10 μl of purified bovine tubulin (50-60 μg of tubulin per well) are then added. […] 200 μl/well of decolorizing solution (25 mM NaOH, 50% ethanol, 0.05 mM EDTA) are finally added using a pipette. Following a 20 minute incubation at room temperature on a shaker (400 rpm), the absorption of 600 nm [sic] is measured in a photometer. What is calculated is the inhibition in % based on the 100% value of a positive control (which contains no test substance), and/or, if a concentration/activity curve is plotted, the lC50 value.

[2] = system: human cervical carcinoma cell line KB/HeLa; experiment: XTT cytotoxicity test, KB/HeLa; type: cell-based
[3] = system: human glioma cell line U373; experiment: XTT cytotoxicity test, U373; details: U373 MG, 45 h, read-out: IC50 U373
[4] = system: human glioma cell line U118; experiment: XTT cytotoxicity test, U118; details: 45 h, read-out: IC50 U118
[5] = system: RKO p21 cells; experiment: RKOp21 model, XTT assay; type: cell-based; details: Homo sapiens; Table 2; read-out: RKP p21 induced IC50
From the text: The model used for examining the cell cycle-specific action was the RKOp21 cell system (M. Schmidt et al. Oncogene19(20):2423-9, 2000). RKO is a human colon carcinoma line in which the cell cycle inhibitor p21^wafl is expressed induced by the ecdysone expression system and leads to an arrest of the cell cycle specifically in G1 and G2. Nonspecific substances inhibit proliferation independently of whether the RKO cell is arrested in G1 or G2 or not. In contrast, cell cycle-specific substances, such as, for example, tubulin inhibitors, are only cytotoxic if the cells are not arrested and the cell cycle is in progress. […] This underlines the arrest of the cell cycle in […] already found in the FACS analyses, and a cell cycle-specific action of the compounds tested.
The assay is carried out in 96-well plates. […] Comparison of the activity on induced and non-induced cells allows conclusions to be drawn about the mechanism of action (cell cycle specificity) of the therapeutics. Non-induced [sic] cells are sown at a cell count which is about four times higher than that of non-induced cells since, compared to non-induced cells, there is no further division during the assay (2×10^4 cells/well induced, about 0.6×10^4 cells/well not induced). The controls are untreated cells (+/− induction). Induction is carried out using 3 μM of muristerone A. On day 1, the cells are plated (+/− muristerone A) and incubated at 37° C. for 24 h. On day 2, the test substance is added (control DMSO) and incubation at 37° C. is continued for another 48 h, after which a standard XTT assay is carried out.

[6] = system: rat glioma cell line C6; experiment: XTT cytotoxicity test, C6; details: 45 h, read-out: IC50 C6
[7] = system: human glioma cell line A-172; experiment: XTT cytotoxicity test, A-172; details: A 172, 45 h, read-out: IC50 A-172
[8] = system: human glioblastoma cell line U373; experiment: Cell cycle analysis by FACS; details: U373, treated 24 h, FIG. 2
[9] = system: various glioma lines; experiment: XTT cytotoxicity test, various glioma lines; type: cell-based
From the text: The publication by M. Medarde et al. 1998, Eur. J. Med. Chem. Vol. 33, pp. 71-77 describes combretastatin analogs which have antitumor action in a proliferation assay with the tumor cell lines P388 (leukemia, murine), A549 (pulmonary carcinoma, human), HT29 (colon carcinoma, human) and Mel28 (melanoma, human).

[10] = read-out: Zytotoxizität KB/HeLa IC50
[11] = XTT test, 45 h incubation, read-out: IC50 KB/HeLa

IC50 [1] [nM] | Structure (SMILES) | IC50 [2, 10] | other results
 | O=C(O)c1ccc(C(=O)c2cc3ccccc3[nH]2)cc1 [Example 107, 4-(1H-2-indolylcarbonyl)-1-benzenecarboxylic acid] |  | melting point: > 220 °C
4300 | COc1ccc2[nH]c(C(=O)c3ccc(Br)cc3)cc2c1 [Example D-65499, 5-methoxy-1H-2-indolyl(4-bromophenyl)-1-methanone] | ~0.3 µg/mL | 
4980 | COc1ccc2[nH]c(C(=O)c3ccc(Cl)cc3)cc2c1 [Example D-65500, 5-methoxy-1H-2-indolyl(4-chlorophenyl)-1-methanone] | ~1 µg/mL | 
2120 | COc1ccc2[nH]c(C(=O)c3ccccc3OC)cc2c1 [Example D-68143, 5-methoxy-1H-2-indolyl(2-methoxyphenyl)-1-methanone] |  | IC50 [3]: 29 nM; IC50 [4]: 23 nM; IC50 [5]: 28 nM; IC50 [2, 11]: 35 nM; IC50 [6]: 98 nM; IC50 [7]: 73 nM
2420 | COc1cccc(C(=O)c2cc3cc(OC)ccc3[nH]2)c1 [Example D-68144, 5-methoxy-1H-2-indolyl(3-methoxyphenyl)-1-methanone] |  | cells in the metaphase of mitotic division (M-phase) [8]: concentration-dependent arrest of the cells in mitosis; IC50 [3]: 5 nM; IC50 [4]: 8.3 nM; IC50 [5]: 3.6 nM; IC50 [2, 11]: 6.6 nM; IC50 [6]: 9.6 nM; IC50 [7]: 15 nM; factor more active than compound 4d ([9]; compared with Medarde et al.): 40-60; IC50 ([9]; read-out: inhibitory activity IC50 in various glioma lines): 5 to 15 nM
< 10000 | COc1ccc(C(=O)c2cc3cc(OC)ccc3[nH]2)c(OC)c1 [Example D-68172, 5-methoxy-1H-2-indolyl(2,4-dimethoxyphenyl)-1-methanone] |  | IC50 [3]: 75 nM; IC50 [4]: 119 nM; IC50 [5]: 136 nM; IC50 [2, 11]: 107 nM; IC50 [6]: 180 nM; IC50 [7]: 330 nM
2930 | COc1ccc2[nH]c(C(=O)c3cccc4ccccc34)cc2c1 [Example D-68213, 5-methoxy-1H-2-indolyl(1-naphthalenyl)-1-methanone] | ~0.1 µg/mL | 
1500 | COc1ccc2[nH]c(C(=O)c3ccc(C)cc3)cc2c1 [Example D-68887, 5-methoxy-1H-2-indolyl(4-methylphenyl)-1-methanone] | ~0.3 µg/mL | 
1030 | COc1ccc2[nH]c(C(=O)c3ccccc3F)cc2c1 [Example D-68888, 2-fluorophenyl(5-methoxy-1H-2-indolyl)-1-methanone] | ~0.2 µg/mL | 
1460 | COc1ccc2[nH]c(C(=O)c3cccc(C(F)(F)F)c3)cc2c1 [Example D-68901, 5-methoxy-1H-2-indolyl(3-trifluoromethylphenyl)-1-methanone] | ~0.01 µg/mL | 
5190 | COc1ccc2[nH]c(C(=O)c3cc(C)ccc3C)cc2c1 [Example D-68906, 5-methoxy-1H-2-indolyl(2,5-dimethylphenyl)-1-methanone] | ~0.2 µg/mL | 
2490 | COc1ccc2[nH]c(C(=O)c3ccc(Cl)c(Cl)c3)cc2c1 [Example D-70026, 5-methoxy-1H-2-indolyl(3,4-dichlorophenyl)-1-methanone] | ~0.1 µg/mL | melting point: 190 to 192 °C
4840 | COc1ccc2[nH]c(C(=O)c3ccccc3C)cc2c1 [Example D-70038, 5-methoxy-1H-2-indolyl(2-methylphenyl)-1-methanone] | ~0.5 µg/mL | 
2440 | NCOc1c(C(=O)c2ccccc2N)[nH]c2ccc(O)cc12 [Example D-70046] | ~2 µg/mL | 
6680 | COc1ccc2[nH]c(C(=O)c3ccccc3N)cc2c1 [Example D-70047, 5-methoxy-1H-2-indolyl(2-aminophenyl)-1-methanone] | ~2 µg/mL | 
3540 | COc1ccccc1C(=O)c1cc2cc(C)ccc2[nH]1 [Example D-70289, 5-methyl-1H-2-indolyl(2-methoxyphenyl)-1-methanone] | ~0.1 µg/mL | 
810 | COc1cc(OC)cc(C(=O)c2cc3cc(C)ccc3[nH]2)c1 [Example D-70316, 5-methyl-1H-2-indolyl(3,5-dimethoxyphenyl)-1-methanone] |  | IC50 [5]: 17.9 nM; melting point: 141 to 142 °C
2700 | COc1ccc2[nH]c(C(=O)c3cccs3)cc2c1 [Example D-70438] |  | 
990 | COc1ccc2[nH]c(C(=O)c3cccc(N)c3)cc2c1 [Example D-81167, 5-methoxy-1H-2-indolyl(3-aminophenyl)-1-methanone] | 0.089 µg/mL | 
390 | COc1ccc2[nH]c(C(=O)c3cccc(F)c3)cc2c1 [Example D-81187] |  | IC50 [5]: 16.8 nM
1740 | COc1ccc2[nH]c(C(=O)c3cccc(OC(F)(F)F)c3)cc2c1 [Example D-81194] | 0.086 µg/mL | 
2050 | COc1ccc2[nH]c(C(=O)c3cccc(SC(F)F)c3)cc2c1 [Example D-81196] | 0.134 µg/mL | 
660 | COc1ccc2[nH]c(C(=O)c3cccc(O)c3)cc2c1 [Example D-81755] | 0.063 µg/mL | 
850 | COc1ccc2[nH]c(C(=O)c3cccc(OC(=O)CCO)c3)cc2c1 [Example D-81756] | 0.093 µg/mL | 
 | CC(=O)O[C@H]1C(=O)[C@@]2(C)[C@H]([C@H](OC(=O)c3ccccc3)[C@]3(O)C[C@H](OC(=O)[C@H](O)[C@@H](NC(=O)c4ccccc4)c4ccccc4)C(C)=C1C3(C)C)[C@]1(OC(C)=O)CO[C@@H]1C[C@@H]2O [Taxol, reference compound] |  | IC50 [5]: 0.0078 µg/mL
90 | CC[C@]1(O)C[C@H]2CN(CCc3c([nH]c4ccccc34)[C@@](C(=O)OC)(c3cc4c(cc3OC)N(C=O)[C@H]3[C@@](O)(C(=O)OC)[C@H](OC(C)=O)[C@]5(CC)C=CCN6CC[C@]43[C@@H]65)C2)C1 [Vincristin, Vincristine, reference compound] |  | 

Structure (SMILES) | IC50 [1] [nM] | IC50 [2, 10] | other results
COc1ccc2[nH]c(C(=O)c3cc(OC)c(OC)c(OC)c3)cc2c1 [Example D-68150, 5-methoxy-1H-2-indolyl(3,4,5-trimethoxyphenyl)-1-methanone] | 10000 | 32 nM | cells in the metaphase of mitotic division (M-phase) [8]: concentration-dependent arrest of the cells in mitosis; IC50 [3]: 19.7 nM; IC50 [4]: 19.4 nM; IC50 [5]: 16.8 nM; IC50 ([2]; 45 h, read-out: IC50 KB/HeLa): 32 nM; IC50 [6]: 77 nM; IC50 [7]: 18.5 nM
